# Target: T1, human TRPM8 (Homo sapiens, UniProt Q7Z2W7)
# T1 construct: expressed in transfected cells; host or cells: Chinese hamster ovary (CHO) cells, T-REx tetracycline-inducible expression system (Invitrogen); co-transfected with pcDNA3.1 aequorin
# Assay: Luminescence readout assay for measuring intracellular calcium (aequorin, CHO cells expressing human TRPM8; icilin, L-menthol or cold activation)
# Format: cell-based
# Conditions: CHO cells expressing human TRPM8, icilin activation (1 μM), aequorin luminescence; read-out: hTRPM8 IC50
# Procedure: Luminescence Readout Assay for Measuring Intracellular Calcium
# A stable Chinese hamster ovary cell line expressing human TRPM8 was generated using tetracycline inducible T-REx™ expression system from Invitrogen, Inc. (Carlsbad, Calif.). […] Twenty four hours before the assay, cells were seeded in 96-well plates and TRPM8 expression was induced with 0.5 μg/ml tetracycline. On the day of the assay, culture media was removed and cells were incubated with assay buffer
# Potential antagonists were added 2.5 min prior to the addition of agonist, 1 μM icilin, 100 μM L-menthol, or 1 min prior to the addition of cold buffer (<10° C.). The luminescence was measured by a CCD camera based FLASH-luminometer built by Amgen, Inc. A cooling device attached to FLASH luminometer was used for cold activation.
# T1 sequence (Q7Z2W7 whole entry): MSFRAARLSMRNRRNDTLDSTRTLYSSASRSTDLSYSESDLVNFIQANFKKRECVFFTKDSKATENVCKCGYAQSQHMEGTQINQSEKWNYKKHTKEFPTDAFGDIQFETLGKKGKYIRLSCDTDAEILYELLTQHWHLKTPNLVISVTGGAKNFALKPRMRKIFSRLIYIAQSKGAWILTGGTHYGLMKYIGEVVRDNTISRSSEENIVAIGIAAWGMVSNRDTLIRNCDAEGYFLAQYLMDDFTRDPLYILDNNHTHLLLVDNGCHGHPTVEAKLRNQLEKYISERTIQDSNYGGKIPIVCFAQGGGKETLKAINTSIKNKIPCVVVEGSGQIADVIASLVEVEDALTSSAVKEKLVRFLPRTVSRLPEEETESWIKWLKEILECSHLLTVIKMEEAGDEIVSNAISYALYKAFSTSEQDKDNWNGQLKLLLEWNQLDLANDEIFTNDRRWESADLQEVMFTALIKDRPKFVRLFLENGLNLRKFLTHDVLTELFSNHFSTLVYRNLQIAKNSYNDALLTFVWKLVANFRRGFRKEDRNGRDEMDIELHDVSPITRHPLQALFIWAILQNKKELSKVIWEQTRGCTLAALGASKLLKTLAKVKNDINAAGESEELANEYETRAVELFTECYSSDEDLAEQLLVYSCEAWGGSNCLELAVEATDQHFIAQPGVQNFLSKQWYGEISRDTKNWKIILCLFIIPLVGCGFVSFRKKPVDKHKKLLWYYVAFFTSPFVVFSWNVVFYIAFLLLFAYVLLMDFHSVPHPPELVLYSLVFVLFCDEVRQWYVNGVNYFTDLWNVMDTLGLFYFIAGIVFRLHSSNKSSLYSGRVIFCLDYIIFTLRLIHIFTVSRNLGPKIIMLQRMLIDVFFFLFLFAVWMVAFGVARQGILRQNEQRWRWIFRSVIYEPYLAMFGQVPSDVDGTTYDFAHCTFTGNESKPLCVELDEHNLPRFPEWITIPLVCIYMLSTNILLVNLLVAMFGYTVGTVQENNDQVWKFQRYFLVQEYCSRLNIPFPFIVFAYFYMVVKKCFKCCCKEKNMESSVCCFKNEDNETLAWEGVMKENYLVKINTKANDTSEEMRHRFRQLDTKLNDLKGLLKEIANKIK
row,IC50 [nM],Structure (SMILES)
1,334,"Cn1cc(C(=O)NC2(c3ccc(C(F)(F)F)cc3)CCOc3cccnc32)ccc1=O (stereo not drawn) [Example 79, 1-methyl-6-oxo-N-(4-(4-(trifluoromethyl)phenyl)-3,4-dihydro-2H-pyrano[3,2-b]pyridin-4-yl)-1,6-dihydropyridine-3-carboxamide]"
2,21,"O=C(NC1(c2ccc(C(F)(F)F)cc2)CCOc2cccnc21)c1ccc2c(c1)CNC2=O (stereo not drawn) [Example 80, 1-oxo-N-(4-(4-(trifluoromethyl)phenyl)-3,4-dihydro-2H-pyrano[3,2-b]pyridin-4-yl)isoindoline-5-carboxamide]"
3,124,"O=C(N[C@]1(c2ccc3ccccc3c2)CCOc2cccnc21)c1ccc(=O)[nH]c1 [Example 81, (S)-N-(4-(naphthalen-2-yl)-3,4-dihydro-2H-pyrano[3,2-b]pyridin-4-yl)-6-oxo-1,6-dihydropyridine-3-carboxamide]"
4,134,"O=C(Nc1cnccn1)N[C@]1(c2ccc(OC(F)(F)F)c(F)c2)CCOc2cccnc21 [Example 82, (S)-1-(4-(3-fluoro-4-(trifluoromethoxy)phenyl)-3,4-dihydro-2H-pyrano[3,2-b]pyridin-4-yl)-3-(pyrazin-2-yl)urea]"
5,266,"COC(=O)c1ccc(NC(=O)N[C@]2(c3ccc(OC(F)(F)F)c(F)c3)CCOc3cccnc32)nc1 [Example 84, (S)-methyl 6-(3-(4-(3-fluoro-4-(trifluoromethoxy)phenyl)-3,4-dihydro-2H-pyrano[3,2-b]pyridin-4-yl)ureido)nicotinate]"
6,19,"COC(=O)c1ccccc1NC(=O)N[C@]1(c2ccc(OC(F)(F)F)c(F)c2)CCOc2cccnc21 [Example 86, (S)-methyl 2-(3-(4-(3-fluoro-4-(trifluoromethoxy)phenyl)-3,4-dihydro-2H-pyrano[3,2-b]pyridin-4-yl)ureido)benzoate]"
7,24,"COC(=O)c1ccc(NC(=O)N[C@]2(c3ccc(OC(F)(F)F)c(F)c3)CCOc3cccnc32)cn1 [Example 87, (S)-methyl 5-(3-(4-(3-fluoro-4-(trifluoromethoxy)phenyl)-3,4-dihydro-2H-pyrano[3,2-b]pyridin-4-yl)ureido)picolinate]"
8,115,"O=C(Nc1ccc(Br)nc1)N[C@]1(c2ccc(OC(F)(F)F)c(F)c2)CCOc2cccnc21 [Example 88, (S)-1-(6-bromopyridin-3-yl)-3-(4-(3-fluoro-4-(trifluoromethoxy)phenyl)-3,4-dihydro-2H-pyrano[3,2-b]pyridin-4-yl)urea]"
9,58,"O=C(Nc1ccncn1)N[C@]1(c2ccc(OC(F)(F)F)c(F)c2)CCOc2cccnc21 [Example 89, (S)-1-(4-(3-fluoro-4-(trifluoromethoxy)phenyl)-3,4-dihydro-2H-pyrano[3,2-b]pyridin-4-yl)-3-(pyrimidin-4-yl)urea]"
10,36,"COC(=O)c1ccc(NC(=O)N[C@]2(c3ccc(OC(F)(F)F)c(F)c3)CCOc3cccnc32)cc1 [Example 90, (S)-methyl 4-(3-(4-(3-fluoro-4-(trifluoromethoxy)phenyl)-3,4-dihydro-2H-pyrano[3,2-b]pyridin-4-yl)ureido)benzoate]"
11,19,"COC(=O)c1cccc(NC(=O)N[C@]2(c3ccc(OC(F)(F)F)c(F)c3)CCOc3cccnc32)c1 [Example 91, (S)-methyl 3-(3-(4-(3-fluoro-4-(trifluoromethoxy)phenyl)-3,4-dihydro-2H-pyrano[3,2-b]pyridin-4-yl)ureido)benzoate]"

# More lines, now with the values behind:
row,Structure (SMILES),IC50 [nM]
1,"CS(=O)(=O)Nc1ccc(C(=O)N[C@]2(c3ccc(OC(F)(F)F)c(F)c3)CCOc3cccnc32)nc1 [Example 65, (S)—N-(4-(3-fluoro-4-(trifluoromethoxy)phenyl)-3,4-dihydro-2H-pyrano[3,2-b]pyridin-4-yl)-5-(methylsulfonamido)picolinamide]",12
2,"O=C(Nc1ccc(F)nc1)N[C@]1(c2ccc(OC(F)(F)F)c(F)c2)CCOc2cccnc21 [Example 66, (S)-1-(4-(3-fluoro-4-(trifluoromethoxy)phenyl)-3,4-dihydro-2H-pyrano[3,2-b]pyridin-4-yl)-3-(6-fluoropyridin-3-yl)urea 2,2,2-trifluoroacetate]",17
3,"C[C@H](NC(=O)N[C@]1(c2ccc(C(F)(F)F)cc2)CCOc2cccnc21)C(F)(F)F [Example 67, 1-((S)-4-(4-(trifluoromethyl)phenyl)-3,4-dihydro-2H-pyrano[3,2-b]pyridin-4-yl)-3-((S)-1,1,1-trifluoropropan-2-yl)urea 2,2,2-trifluoroacetate]",293
4,"N#Cc1ccc(NC(=O)N[C@]2(c3ccc(OC(F)(F)F)c(F)c3)CCOc3cccnc32)cc1 [Example 68, (S)-1-(4-cyanophenyl)-3-(4-(3-fluoro-4-(trifluoromethoxy)phenyl)-3,4-dihydro-2H-pyrano[3,2-b]pyridin-4-yl)urea]",23
5,"O=C(Nc1ccc(Cl)nc1)N[C@]1(c2ccc(OC(F)(F)F)c(F)c2)CCOc2cccnc21 [Example 69, (S)-1-(6-chloropyridin-3-yl)-3-(4-(3-fluoro-4-(trifluoromethoxy)phenyl)-3,4-dihydro-2H-pyrano[3,2-b]pyridin-4-yl)urea]",36
6,"O=C(Nc1cccnc1)NC1(c2ccc(C(F)(F)F)cc2)CCOc2ccccc21 (stereo not drawn) [Example 70, 1-(pyridin-3-yl)-3-(4-(4-(trifluoromethyl)phenyl)chroman-4-yl)urea]",1350
7,"O=C(Nc1cccnc1)NC1(c2ccc(C(F)(F)F)cc2)CCCc2cccnc21 (stereo not drawn) [Example 71, 1-(pyridin-3-yl)-3-(8-(4-(trifluoromethyl)phenyl)-5,6,7,8-tetrahydroquinolin-8-yl)urea]",143
8,"O=C(Nc1cccc(F)c1)N[C@]1(c2ccc(C(F)(F)F)cc2)CCOc2cccnc21 [Example 72, (S)-1-(3-fluorophenyl)-3-(4-(4-(trifluoromethyl)phenyl)-3,4-dihydro-2H-pyrano[3,2-b]pyridin-4-yl)urea]",112
9,"O=C(Nc1cccnc1)N[C@]1(c2ccc(C(F)(F)F)cc2)CCOc2cccnc21 [Example 73, (S)-1-(pyridin-3-yl)-3-(4-(4-(trifluoromethyl)phenyl)-3,4-dihydro-2H-pyrano[3,2-b]pyridin-4-yl)urea]",19
10,"O=C(Nc1ccc(F)cc1)N[C@]1(c2ccc(C(F)(F)F)cc2)CCOc2cccnc21 [Example 74, (S)-1-(4-fluorophenyl)-3-(4-(4-(trifluoromethyl)phenyl)-3,4-dihydro-2H-pyrano[3,2-b]pyridin-4-yl)urea]",25
11,"O=S(=O)(N[C@]1(c2ccc(OC(F)(F)F)c(F)c2)CCOc2cccnc21)c1ccccc1 [Example 76, (S)—N-(4-(3-fluoro-4-(trifluoromethoxy)phenyl)-3,4-dihydro-2H-pyrano[3,2-b]pyridin-4-yl)benzenesulfonamide 2,2,2-trifluoroacetate]",206
12,"O=S(=O)(N[C@]1(c2ccc(OC(F)(F)F)c(F)c2)CCOc2cccnc21)c1cccnc1 [Example 77, (S)—N-(4-(3-fluoro-4-(trifluoromethoxy)phenyl)-3,4-dihydro-2H-pyrano[3,2-b]pyridin-4-yl)pyridine-3-sulfonamide 2,2,2-trifluoroacetate]",1340
13,"CC(C)(C)OC(=O)N[C@]1(c2ccc(OC(F)(F)F)c(F)c2)CCOc2cccnc21 [Example 78, (S)-tert-butyl (4-(3-fluoro-4-(trifluoromethoxy)phenyl)-3,4-dihydro-2H-pyrano[3,2-b]pyridin-4-yl)carbamate]",58

# Reference: patent US20150031668A1, “CHROMAN DERIVATIVES AS TRPM8 INHIBITORS” (AMGEN INC., priority 2013, published 2015)
